The values that follow come from publication PMC11124507, “Synthesis and Evaluation of Novel ^68Ga-Labeled [D-Phe^6,Leu^13ψThz^14]bombesin(6-14) Analogs for Cancer Imaging with Positron Emission Tomography” (Pharmaceuticals, 2024).

One data set deals with T1, GRPR (Homo sapiens, UniProt P30550).
T1 construct: Known to overexpress GRPR, the PC-3 cell line, a human prostate cancer cell line; host or cells: PC-3 human prostate cancer cells
In words: Fluorometric intracellular calcium release assay in PC-3 cells. In kind it is cell-based. The note with it: 50 nM, n = 3. Here is the method:
Following previously published procedures, 5 × 10^4 PC-3 cells in 100 μL of growth media were seeded per well in a 96-well clear-bottom black plate 24 h prior to the assay. A loading buffer (100 μL/well) containing a calcium-sensitive dye (FLIPR Calcium 6 assay kit) was added to the 96-well plate. After incubation at 37 °C for 2 h, the plate was placed in a FlexStation 3 microplate reader (Molecular Devices, San Jose, CA, USA). TacsBOMB2 derivatives (50 nM), [D-Phe^6,Leu-NHEt^13,des-Met^14]Bombesin(6-14) (50 nM, antagonist control), bombesin (50 nM, agonist control), adenosine triphosphate (ATP, 50 nM, positive control), or DPBS (blank control) was added, and the fluorescent signals were acquired for 2 min (λEx = 485 nm; λEm = 525 nm; n = 3). The relative fluorescent units (RFUs = max − min) were measured to determine the agonistic/antagonistic properties.
In general terms: Calcium assays in cells follow changes in intracellular calcium, usually with a dye or a luminescent sensor.

The test system of a further data set is PC-3 tumor xenografts. The note with it: mouse, in vivo, 1 h; cited from earlier work.

T1 sequence (P30550 whole entry): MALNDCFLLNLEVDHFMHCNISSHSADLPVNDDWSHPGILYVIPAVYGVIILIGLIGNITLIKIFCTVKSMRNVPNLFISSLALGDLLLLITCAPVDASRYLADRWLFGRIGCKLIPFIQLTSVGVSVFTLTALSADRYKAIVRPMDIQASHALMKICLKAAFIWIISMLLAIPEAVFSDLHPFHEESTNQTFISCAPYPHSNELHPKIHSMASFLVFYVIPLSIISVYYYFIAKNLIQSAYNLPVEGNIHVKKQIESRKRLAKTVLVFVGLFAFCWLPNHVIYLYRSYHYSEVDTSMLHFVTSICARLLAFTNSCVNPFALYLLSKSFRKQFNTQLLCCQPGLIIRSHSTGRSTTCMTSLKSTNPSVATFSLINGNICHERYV

As to “[D-Phe^6,Leu-NHEt^13,des-Met^14]Bombesin(6-14)”, the “Ca2+ efflux” value on GRPR worked out at 38.2 ± 7.20 RFUs.

With “[^68Ga]Ga-DOTA-Pip-D-Phe^6-Gln^7-Trp^8-Ala^9-Val^10-Gly^11-His^12-Leu^13ψThz^14-NH2 [[^68Ga]Ga-TacsBOMB2]”, in the data set with PC-3 tumor xenografts, the Adrenal glands uptake is listed as 0.57 ± 0.40 %ID/g, the Blood uptake was 0.76 ± 0.21 %ID/g, the Bone uptake is on record as 0.19 ± 0.06 %ID/g and the Brain uptake is 0.05 ± 0.03 %ID/g. Further, in the data set with PC-3 tumor xenografts, the Fat uptake is given as 0.09 ± 0.03 %ID/g, the Heart uptake was 0.27 ± 0.08 %ID/g, the Kidneys uptake is given as 2.51 ± 0.59 %ID/g and the Large intestine uptake is recorded as 0.37 ± 0.16 %ID/g. In addition, in the data set with PC-3 tumor xenografts, the Liver uptake was 2.61 ± 0.70 %ID/g, the Lungs uptake was 0.75 ± 0.52 %ID/g, the Muscle uptake is reported as 0.15 ± 0.05 %ID/g and the PC-3 tumor uptake is listed as 10.2 ± 2.27 %ID/g. In addition, in the data set with PC-3 tumor xenografts, the Pancreas uptake is given as 2.81 ± 0.78 %ID/g, the Small intestine uptake is 1.04 ± 0.30 %ID/g, the Spleen uptake is 0.47 ± 0.17 %ID/g and the Stomach uptake was 0.32 ± 0.08 %ID/g. Further, in the data set on PC-3 tumor xenografts, the Testes uptake is 0.19 ± 0.05 %ID/g.

With `Nc1ncnc2c1ncn2[C@@H]1O[C@H](COP(=O)(O)OP(=O)(O)OP(=O)(O)O)[C@@H](O)[C@H]1O` [ATP, adenosine triphosphate], at GRPR, the “Ca2+ efflux” value stood at 222 ± 21.7 RFUs.

bombesin: at GRPR, the “Ca2+ efflux” value is on record as 499 ± 73.4 RFUs.
